Source: US20110082130A1 (LIGAND PHARMACEUTICALS, INC., priority 2006, published 2011)
pKi: −log10 of the molar value.

The molecules below were run against T1, chimeric human H3 receptor (Homo sapiens, UniProt Q9Y5N1) (assay: Chimeric human H3 receptor GTP binding assay (agonist-stimulated GTP-gamma35S binding, Example 7)). Conditions: Table I; P2 membranes of Sf9 cells, 1 μM histamine as agonist, Ki from IC50 by Cheng-Prusoff.
T1 construct: made in house; host or cells: Sf9 insect cells (baculovirus); P2 membrane preparation
Type: biochemical
Outline: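 Sf9 membranes co-expressing chimeric human H3 receptor and heterotrimeric G-protein, 35 μg/tube, in pH 7.4 Tris buffer with 10 μM GDP. Test compounds (10^−10–10^−6 M) competed against 1 μM histamine, […] GTP-gamma35S, 60 min at room temperature. Filter-bound radioactivity counted; IC50 converted to Ki by Cheng-Prusoff. Agonism/inverse agonism tested without histamine (EC50).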

T1 sequence (Q9Y5N1 with tags, fused parts or gaps): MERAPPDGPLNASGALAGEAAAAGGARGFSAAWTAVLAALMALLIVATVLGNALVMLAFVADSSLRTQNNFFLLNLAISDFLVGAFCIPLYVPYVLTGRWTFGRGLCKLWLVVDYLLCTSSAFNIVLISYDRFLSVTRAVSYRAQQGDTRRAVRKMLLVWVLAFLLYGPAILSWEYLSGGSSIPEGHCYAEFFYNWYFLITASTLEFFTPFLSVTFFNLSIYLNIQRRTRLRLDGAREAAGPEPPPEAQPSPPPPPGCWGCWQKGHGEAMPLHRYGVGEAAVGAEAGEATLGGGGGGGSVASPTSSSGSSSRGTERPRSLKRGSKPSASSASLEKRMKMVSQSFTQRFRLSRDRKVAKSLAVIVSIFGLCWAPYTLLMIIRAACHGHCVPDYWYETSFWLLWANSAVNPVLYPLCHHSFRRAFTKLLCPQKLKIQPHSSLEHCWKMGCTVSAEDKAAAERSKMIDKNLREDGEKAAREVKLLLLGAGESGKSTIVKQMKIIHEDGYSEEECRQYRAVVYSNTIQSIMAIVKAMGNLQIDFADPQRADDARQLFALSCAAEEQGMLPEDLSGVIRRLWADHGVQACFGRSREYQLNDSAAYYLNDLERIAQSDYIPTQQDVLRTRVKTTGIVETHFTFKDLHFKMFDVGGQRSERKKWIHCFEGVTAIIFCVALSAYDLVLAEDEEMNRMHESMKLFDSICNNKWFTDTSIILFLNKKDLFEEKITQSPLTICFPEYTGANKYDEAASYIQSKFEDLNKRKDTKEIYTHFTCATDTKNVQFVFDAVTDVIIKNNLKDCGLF

pKi, > 6.00:
CC(C)N1CCN(C(=O)CN2CCc3ccccc3C2c2ccccc2Cl)CC1 (stereo not shown) [Compound 59, 1-(2-chlorophenyl)-2-[2-(4-isopropylpiperazin-1-yl)-2-oxoethyl]-1,2,3,4-tetrahydroisoquinoline]
CC(C)CC1c2ccccc2CCN1CC(=O)N1CCN(C(C)C)CC1 (stereo not shown) [Compound 57, 1-isobutyl-2-[2-(4-isopropylpiperazin-1-yl)-2-oxoethyl]-1,2,3,4-tetrahydroisoquinoline]
CCC(=O)c1ccc2c(c1)CCN(CC(=O)N1CCN(C3CCC3)CC1)C2 [Compound 73, 1-{2-[2-(4-cyclobutylpiperazin-1-yl)-2-oxoethyl]-1,2,3,4-tetrahydroisoquinolin-6-yl}propan-1-one]

Same assay, conditions: Table II "Ki", symbol *; assay of Example 7

pKi, > 6.00:
O=C(CN1CCc2cc(-c3nccc(C(F)(F)F)n3)ccc2C1)N1CCN(C2CCC2)CC1 [Compound 636, 2-[2-(4-cyclobutylpiperazin-1-yl)-2-oxoethyl]-6-[4-(trifluoromethyl)pyrimidin-2-yl]-1,2,3,4-tetrahydroisoquinoline]
CCOCCNc1ccc2c(n1)CCN(CC(=O)N1CCN(C3CCC3)CC1)C2 [Compound 667, 6-[2-(4-cyclobutylpiperazin-1-yl)-2-oxoethyl]-N-(2-ethoxyethyl)-5,6,7,8-tetrahydro-1,6-naphthyridin-2-amine]
CCOc1ccc(-c2ccc3c(c2)CCN(CC(=O)N2CCN(C4CCC4)CC2)C3)cc1 [Compound 528, 2-[2-(4-cyclobutylpiperazin-1-yl)-2-oxoethyl]-6-(4-ethoxyphenyl)-1,2,3,4-tetrahydroisoquinoline]
COC[C@@H]1CCCN1c1ccc2c(n1)CCN(CC(=O)N1CCN(C3CCC3)CC1)C2 [Compound 678, 6-[2-(4-cyclobutylpiperazin-1-yl)-2-oxoethyl]-2-[(2S)-2-(methoxymethyl)pyrrolidin-1-yl]-5,6,7,8-tetrahydro-1,6-naphthyridine]
CC(C)c1ccc(-c2ccc3c(c2)CCN(CC(=O)N2CCN(C4CCC4)CC2)C3)cn1 [Compound 649, 2-[2-(4-cyclobutylpiperazin-1-yl)-2-oxoethyl]-6-(6-isopropylpyridin-3-yl)-1,2,3,4-tetrahydroisoquinoline]
CN(C)Cc1ccccc1-c1ccc2c(c1)CCN(CC(=O)N1CCN(C3CCC3)CC1)C2 [Compound 640, 1-(2-{2-[2-(4-cyclobutylpiperazin-1-yl)-2-oxoethyl]-1,2,3,4-tetrahydroisoquinolin-6-yl}phenyl)-N,N-dimethylmethanamine]
CCCC(C)Nc1ccc2c(n1)CCN(CC(=O)N1CCN(C3CCC3)CC1)C2 (stereo not shown) [Compound 657, 6-[2-(4-cyclobutylpiperazin-1-yl)-2-oxoethyl]-N-(1-methylbutyl)-5,6,7,8-tetrahydro-1,6-naphthyridin-2-amine]
C[C@@H]1CN(C(=O)CN2CCc3cc(-c4cncnc4)ccc3C2)CCN1C1CCCC1 [Compound 611, 2-{2-[(3R)-4-cyclopentyl-3-methylpiperazin-1-yl]-2-oxoethyl}-6-pyrimidin-5-yl-1,2,3,4-tetrahydroisoquinoline]

Same assay, conditions: Table II; "*" = Ki in assay of Example 7 less than 1 micromolar

pKi, > 6.00:
O=C(CN1CCc2cc(N3CCCCC3=O)ccc2C1)N1CCN(C2CCC2)CC1 [Compound 211, 1-{2-[2-(4-cyclobutylpiperazin-1-yl)-2-oxoethyl]-1,2,3,4-tetrahydroisoquinolin-6-yl}piperidin-2-one]
O=C(CN1CCc2cc(-c3cccc(F)c3)nnc2C1)N1CCN(C2CCC2)CC1 [Compound 233, 7-[2-(4-cyclobutylpiperazin-1-yl)-2-oxoethyl]-3-(3-fluorophenyl)-5,6,7,8-tetrahydropyrido[3,4-c]pyridazine]
O=C(CN1CCc2sc(-c3cncnc3)cc2C1)N1CCN(C2CCC2)CC1 [Compound 269, 5-[2-(4-cyclobutylpiperazin-1-yl)-2-oxoethyl]-2-pyrimidin-5-yl-4,5,6,7-tetrahydrothieno[3,2-c]pyridine]
CC(=O)c1ccc2c(c1)CCN(CC(=O)N1CCN(C3CCCC3C)CC1)C2 (stereo not shown) [Compound 206, 1-(2-{2-[4-(2-methylcyclopentyl)piperazin-1-yl]-2-oxoethyl}-1,2.3,4-tetrahydroisoquinolin-6-yl)ethanone]
O=C(CN1CCc2nc(N3CCOCC3)ncc2C1)N1CCN(C2CCC2)CC1 [Compound 139, 6-[2-(4-cyclobutylpiperazin-1-yl)-2-oxoethyl]-2-morpholin-4-yl-5,6,7,8-tetrahydropyrido[4,3-d]pyrimidine]
O=C(CN1CCc2cc(-c3cnccn3)ccc2C1)N1CCN(C2CCC2)CC1 [Compound 128, 2-[2-(4-cyclobutylpiperazin-1-yl)-2-oxoethyl]-6-pyrazin-2-yl-1,2,3,4-tetrahydroisoquinoline]
CN(C)c1ccc(-n2cc3c(n2)CCN(CC(=O)N2CCN(C4CCC4)CC2)C3)nn1 [Compound 259, 6-{5-[2-(4-cyclobutylpiperazin-1-yl)-2-oxoethyl]-4,5,6,7-tetrahydro-2H-pyrazolo[4,3-c]pyridin-2-yl}-N,N-dimethylpyridazin-3-amine]
CNC(=O)c1cnc2c(c1)CCN(CC(=O)N1CCN(C3CCC3)C(C)C1)C2 (stereo not shown) [Compound 121, 7-[2-(4-cyclobutyl-3-methylpiperazin-1-yl)-2-oxoethyl]-N-methyl-5,6,7,8-tetrahydro-1,7-naphthyridine-3-carboxamide]
O=C(CN1CCc2[nH]c(=O)ccc2C1)N1CCN(C2CCCCC2)CC1 [Compound 136, 6-[2-(4-cyclohexylpiperazin-1-yl)-2-oxoethyl]-5,6,7,8-tetrahydro-1,6-naphthyridin-2(1H)-one]
O=C(CN1CCc2nc(Cl)ccc2C1)N1CCN(C2CCC2)CC1 [Compound 168, 2-chloro-6-[2-(4-cyclobutylpiperazin-1-yl)-2-oxoethyl]-5,6,7,8-tetrahydro-1,6-naphthyridine]
CC1(C)CN(CC(=O)N2CCN(C3CCC3)CC2)Cc2cnc(N3CCOCC3)nc21 [Compound 239, 6-[2-(4-cyclobutylpiperazin-1-yl)-2-oxoethyl]-8,8-dimethyl-2-morpholin-4-yl-5,6,7,8-tetrahydropyrido[4,3-d]pyrimidine]
CN(C)c1ncc2c(n1)CCN(CC(=O)N1CCN(C3CCC3)CC1)C2 [Compound 246, 6-[2-(4-cyclobutylpiperazin-1-yl)-2-oxoethyl]-N,N-dimethyl-5,6,7,8-tetrahydropyrido[4,3-d]pyrimidin-2-amine]
Cc1ccc(-n2cc3c(n2)CCN(CC(=O)N2CCN(C4CCC4)CC2)C3)nc1 [Compound 261, 5-[2-(4-cyclobutylpiperazin-1-yl)-2-oxoethyl]-2-(5-methylpyridin-2-yl)-4,5,6,7-tetrahydro-2H-pyrazolo[4,3-c]pyridine]
CC1CN(C(=O)CN2CCc3nc(Cl)sc3C2)CCN1C1CCC1 (stereo not shown) [Compound 109, 2-chloro-5-[2-(4-cyclobutyl-3-methylpiperazin-1-yl)-2-oxoethyl]-4,5,6,7-tetrahydro[1,3] thiazolo [5,4-c]pyridine]
CC1CN(C(=O)CN2CCc3nc(-c4ccncc4)sc3C2)CCN1C1CCC1 (stereo not shown) [Compound 114, 5-[2-(4-cyclobutyl-3-methylpiperazin-1-yl)-2-oxoethyl]-2-pyridin-4-yl-4,5,6,7-tetrahydro[1,3]thiazolo [5,4-c]pyridine]
O=C(CN1CCc2cc(-n3cc4ccccc4n3)ccc2C1)N1CCN(C2CCC2)CC1 [Compound 229, 2-[2-(4-cyclobutylpiperazin-1-yl)-2-oxoethyl]-6-(2H-indazol-2-yl)-1,2,3,4-tetrahydroisoquinoline]

Same assay, conditions: assay of Example 7; "*" in Ki of Table II

pKi, > 6.00:
CC(C)N1CCN(C(=O)CN2CCc3cc(-c4cncnc4)ccc3C2)CC1 [Compound 387, 2-[2-(4-isopropylpiperazin-1-yl)-2-oxoethyl]-6-pyrimidin-5-yl-1,2,3,4-tetrahydroisoquinoline]
O=C(CN1CCc2nc(-c3cc(Cl)cc(Cl)c3)sc2C1)N1CCN(C2CCC2)CC1 [Compound 350, 5-[2-(4-cyclobutylpiperazin-1-yl)-2-oxoethyl]-2-(3,5-dichlorophenyl)-4,5,6,7-tetrahydro[1,3]thiazolo [5,4-c]pyridine]
CCc1ccc(-c2nc3c(s2)CN(CC(=O)N2CCN(C4CCC4)CC2)CC3)cc1 [Compound 311, 5-[2-(4-cyclobutylpiperazin-1-yl)-2-oxoethyl]-2-(4-ethylphenyl)-4,5,6,7-tetrahydro[1,3]thiazolo [5,4-c]pyridine]
COc1cccc(-c2nc3c(s2)CN(CC(=O)N2CCN(C4CCC4)CC2)CC3)c1 [Compound 315, 5-[2-(4-cyclobutylpiperazin-1-yl)-2-oxoethyl]-2-(3-methoxyphenyl)-4,5,6,7-tetrahydro[1,3]thiazolo [5,4-c]pyridine]
O=C(CN1CCc2nc(-c3ccc(Cl)c(C(F)(F)F)c3)sc2C1)N1CCN(C2CCC2)CC1 [Compound 373, 2-[4-chloro-3-(trifluoromethyl)phenyl]-5-[2-(4-cyclobutylpiperazin-1-yl)-2-oxoethyl]-4,5,6,7-tetrahydro[1,3]thiazolo [5,4-c]pyridine]
CCOC(=O)c1ccc(-c2nc3c(s2)CN(CC(=O)N2CCN(C4CCC4)CC2)CC3)cc1 [Compound 375, ethyl 4-{5-[2-(4-cyclobutylpiperazin-1-yl)-2-oxoethyl]-4,5,6,7-tetrahydro[1,3]thiazolo [5,4-c]pyridin-2-yl}benzoate]
CCCc1ccc(-c2nc3c(s2)CN(CC(=O)N2CCN(C4CCC4)CC2)CC3)cc1 [Compound 312, 5-[2-(4-cyclobutylpiperazin-1-yl)-2-oxoethyl]-2-(4-propylphenyl)-4,5,6,7-tetrahydro[1,3]thiazolo [5,4-c]pyridine]
